ChEMBL document CHEMBL5500355, “Quantum chemistry calculation-aided discovery of potent small-molecule mimics of glutathione peroxidases for the treatment of cisplatin-induced hearing loss” (Eur J Med Chem, 2024)
In brackets after ≈: the same amount, converted by molar mass. Activity calls are given as the source filed them.

How the values were obtained:
[1] = Glutathione peroxidase like activity of compound assessed as fold increase by measuring reduction in NADPH level at 10 uM by microplate reader assay relative to SPI-1005; type: ADME
[2] = Glutathione peroxidase like activity of compound assessed as fold increase by measuring reduction in NADPH level at 100 uM by microplate reader assay relative to SPI-1005; type: ADME
Mus musculus [3] = organism: Mus musculus; test: Inhibition of cisplatin induced hair loss in neonatal C57BL/6 mouse cochlear explants assessed as reduction in cochlear hair cells loss in middle turns pretreated with compound for 2 hrs followed by cisplatin addition and measured after 24 hrs post cisplatin treatment; type: functional; settings: Cochlea, time 26.0 hrs
Mus musculus [4] = organism: Mus musculus; test: Inhibition of cisplatin induced hair loss in neonatal C57BL/6 mouse cochlear explants assessed as reduction in cochlear hair cells loss in base turns pretreated with compound for 2 hrs followed by cisplatin addition and measured after 24 hrs post cisplatin treatment; type: functional; settings: Cochlea, time 26.0 hrs
Mus musculus [5] = organism: Mus musculus; test: Inhibition of cisplatin induced hair loss in neonatal C57BL/6 mouse cochlear explants assessed as reduction in cochlear hair cells loss in apex turns pretreated with compound for 2 hrs followed by cisplatin addition and measured after 24 hrs post cisplatin treatment; type: functional; settings: Cochlea, time 26.0 hrs
[6] = Solubility of compound in water by liquid chromatography method; type: physicochemical
Mus musculus [7] = test: Protection against cisplatin induced oxidative stress in C57BL/6 mouse assessed as increase in SOD level at 80 mg/kg, po administered daily for one week with simultaneous cisplatin addition on day 3 and 7 and measured after 1 week post last cisplatin treatment by ELISA; type: functional, organism-based; settings: time 2.0 weeks
Mus musculus [8] = test: Protection against cisplatin induced oxidative stress in C57BL/6 mouse assessed as reduction in MDA level at 80 mg/kg, po administered daily for one week with simultaneous cisplatin addition on day 3 and 7 and measured after 1 week post last cisplatin treatment by ELISA; type: functional, organism-based; settings: time 2.0 weeks
Mus musculus [9] = test: Prevention of cisplatin induced hair loss in C57BL/6 mouse at 80 mg/kg, po administered daily for one week with simultaneous cisplatin addition on day 3 and 7 and measured after 1 week post last cisplatin treatment by myosin 7a-staining based assay; type: functional, organism-based; settings: time 2.0 weeks
Mus musculus [10] = test: Protection against cisplatin induced oxidative stress in C57BL/6 mouse assessed as reduction in TNF-alpha level at 80 mg/kg, po administered daily for one week with simultaneous cisplatin addition on day 3 and 7 and measured after 1 week post last cisplatin treatment by ELISA; type: functional, organism-based; settings: time 2.0 weeks
Mus musculus [11] = test: Prevention of cisplatin induced hearing loss in C57BL/6 mouse assessed as reduction in ABR threshold increase at 80 mg/kg, po administered daily for one week with simultaneous cisplatin addition on day 3 and 7 and measured after 1 week post last cisplatin treatment; type: functional, organism-based; settings: time 2.0 weeks
Mus musculus [12] = test: Protection against cisplatin induced oxidative stress in C57BL/6 mouse assessed as reduction in IL-6 level at 80 mg/kg, po administered daily for one week with simultaneous cisplatin addition on day 3 and 7 and measured after 1 week post last cisplatin treatment by ELISA; type: functional, organism-based; settings: time 2.0 weeks
Mus musculus [13] = organism: Mus musculus; test: Inhibition of cisplatin induced ferroptosis in neonatal C57BL/6 mouse cochlear explants assessed as reduction in mitochondrial iron accumulation at 100 uM by Mito-FerroGreen staining based confocal microscopy analysis; type: functional, organism-based; settings: Cochlea
Mus musculus [14] = organism: Mus musculus; test: Inhibition of cisplatin induced apoptosis in neonatal C57BL/6 mouse cochlear explants assessed as reduction in cleaved caspase 3 positive hair cells in middle turn of cochlea at 100 uM by parvalbumin staining based assay; type: functional
Mus musculus [15] = organism: Mus musculus; test: Inhibition of cisplatin induced apoptosis in neonatal C57BL/6 mouse cochlear explants assessed as reduction in cleaved caspase 3 positive hair cells in basal turn of cochlea at 100 uM by parvalbumin staining based assay; type: functional
Mus musculus [16] = organism: Mus musculus; test: Inhibition of cisplatin induced oxidative stress in neonatal C57BL/6 mouse cochlear explants at 100 uM by MitoSOX Red staining based confocal fluorescence microscope analysis; type: functional, organism-based; settings: Cochlea
6-10B = test: Effect on cisplatin induced antitumor activity in human 6-10B cells by CCK8 assay; type: functional, cell-based
Tu 686 = test: Effect on cisplatin induced antitumor activity in human Tu 686 cells by CCK8 assay; type: functional, cell-based
HeLa = test: Effect on cisplatin induced antitumor activity in human HeLa cells by CCK8 assay; type: functional, cell-based
Mus musculus [17] = organism: Mus musculus; test: Inhibition of cisplatin induced apoptosis in neonatal C57BL/6 mouse cochlear explants assessed as reduction in cleaved caspase 3 positive hair cells in apex turn of cochlea at 100 uM by parvalbumin staining based assay; type: functional

| Structure (SMILES) | fold change (FC) [1] | fold change (FC) [2] | further results |
| --- | --- | --- | --- |
| COc1ccccc1-n1[se]c2ccccc2c1=O | 0.9 | 1.1 | – |
| COc1cccc(-n2[se]c3ccccc3c2=O)c1 | 0.7 | 1 | – |
| O=c1c2cc(Br)ccc2[se]n1-c1ccccc1 | 0.5 | 1.1 | – |
| O=c1c2cccc(Br)c2[se]n1-c1ccccn1 | 9.1 | 4.7 | – |
| O=c1c2cccc(Br)c2[se]n1-c1ccccc1 | 8.8 | 3.5 | inhibition (Mus musculus [3]): Active; inhibition (Mus musculus [4]): Active; inhibition (Mus musculus [5]): Active |
| O=c1c2ccc(Br)cc2[se]n1-c1ccccc1 | 0.7 | 0.6 | – |
| COc1cccc2c(=O)n(-c3ccccc3)[se]c12 | 7.4 | 4.2 | solubility [6]: 2.5 µg/mL (≈ 8.22 µM); inhibition (Mus musculus [3]): Active; inhibition (Mus musculus [4]): Active; inhibition (Mus musculus [5]): Active |
| Cc1cccc2c(=O)n(-c3ccccc3)[se]c12 | 4.6 | 2.5 | – |
| O=c1c2cccc(F)c2[se]n1-c1ccccc1 | 4.5 | 2.5 | – |
| O=c1c2cccc(Br)c2[se]n1-c1cccnc1 | 9.8 | 3.5 | inhibition (Mus musculus [3]): Active; inhibition (Mus musculus [4]): Active; inhibition (Mus musculus [5]): Active |
| O=c1c2cccc(Cl)c2[se]n1-c1ccccc1 | 8.6 | 3.5 | – |
| O=c1c2ccccc2[se]n1-c1ccccc1 | – | – | Activity (Mus musculus [7]): Active; Activity (Mus musculus [8]): Active; inhibition (Mus musculus [3]): Active; inhibition (Mus musculus [4]): Active; Activity (Mus musculus [9]): Active; Activity (Mus musculus [10]): Active; Activity (Mus musculus [11]): Active; inhibition (Mus musculus [5]): Active; Activity (Mus musculus [12]): Active; inhibition (Mus musculus [13]): Active |
| O=c1c2cccc([N+](=O)[O-])c2[se]n1-c1ccccc1 | 7.2 | 3.3 | – |
| COc1ccc(-n2[se]c3ccccc3c2=O)cc1 | 1.3 | 1.1 | – |
| COc1cccc2c(=O)n(-c3ccccn3)[se]c12 | 6.9 | 3.8 | – |
| O=c1c2cccc(Br)c2[se]n1-c1ccncc1 | 7.7 | 3.4 | – |
| COc1cccc2[se]n(-c3ccccc3)c(=O)c12 | 1.8 | 1.2 | – |
| COc1ccc2c(=O)n(-c3ccccc3)[se]c2c1 | 0.2 | 0.5 | – |
| COc1cccc2c(=O)n(-c3cccnc3)[se]c12 | 7.7 | 3.5 | Activity (Mus musculus [7]): Active; solubility [6]: 1800 µg/mL (≈ 5900 µM); Activity (Mus musculus [8]): Active; inhibition (Mus musculus [14]): Active; inhibition (Mus musculus [15]): Active; inhibition (Mus musculus [16]): Active; Activity (6-10B): inactive; Activity (Tu 686): inactive; Activity (HeLa): inactive; inhibition (Mus musculus [3]): Active; inhibition (Mus musculus [4]): Active; Activity (Mus musculus [9]): Active; Activity (Mus musculus [10]): Active; inhibition (Mus musculus [17]): Active; Activity (Mus musculus [11]): Active; inhibition (Mus musculus [5]): Active; Activity (Mus musculus [12]): Active; inhibition (Mus musculus [13]): Active |
| COc1ccc2[se]n(-c3ccccc3)c(=O)c2c1 | 0.5 | 0.8 | – |
| COc1cccc2c(=O)n(-c3ccncc3)[se]c12 | 7.4 | 3 | – |
